From PubChem BioAssay (NCI)
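Grown in 96-well plates, cells were treated for 48 hours with each compound at five concentrations. Insufficient inhibition: endpoint recorded as highest concentration tested. Here, GI50 denotes the concentration required for 50% inhibition of growth. TGI denotes the concentration required for complete inhibition of growth.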

How the values were obtained:
Experiment in all cases: growth of human tumour cells (NCI), 48 h
UACC-62 melanoma = system: UACC-62 melanoma
U251 CNS = system: U251 CNS
OVCAR-8 ovarian = system: OVCAR-8 ovarian
NCI-H460 lung = system: NCI-H460 lung
TK-10 renal = system: TK-10 renal
SNB-19 CNS = system: SNB-19 CNS
SF-295 CNS = system: SF-295 CNS
786-0 renal = system: 786-0 renal
NCI-H226 lung = system: NCI-H226 lung
HOP-92 NSCLC = system: HOP-92 NSCLC

`CC(=O)OC12c3ccccc3C1CCCCCC21OCCCO1` (stereo unspecified) was tested, and the TGI (UACC-62 melanoma) was greater than 100 µM, the TGI (U251 CNS) was greater than 100 µM and the TGI (OVCAR-8 ovarian) was greater than 100 µM. For the same molecule, the TGI (NCI-H460 lung) was greater than 100 µM, the TGI (TK-10 renal) was greater than 100 µM and the TGI (SNB-19 CNS) was greater than 100 µM. For the same molecule, the TGI (SF-295 CNS) was greater than 100 µM, the TGI (786-0 renal) was greater than 100 µM and the TGI (NCI-H226 lung) was greater than 100 µM.

Work on `N=C(N)SCCc1cn2ccccc2n1` yielded a TGI (U251 CNS) greater than 100 µM, a TGI (OVCAR-8 ovarian) greater than 100 µM and a TGI (NCI-H460 lung) greater than 100 µM. For the same molecule, the TGI (TK-10 renal) was greater than 100 µM, the TGI (SNB-19 CNS) was greater than 100 µM and the TGI (SF-295 CNS) was greater than 100 µM. It also gave a TGI (786-0 renal) greater than 100 µM and a TGI (NCI-H226 lung) greater than 100 µM.

`COC(OC)c1cccc2c1C1(O)CCC3(CC21)OCCCCO3` (stereo unspecified) was tested, and the TGI (UACC-62 melanoma) was greater than 100 µM, the TGI (U251 CNS) was greater than 100 µM and the TGI (OVCAR-8 ovarian) was greater than 100 µM. For the same molecule, the TGI (NCI-H460 lung) was greater than 100 µM, the TGI (TK-10 renal) was greater than 100 µM and the TGI (SNB-19 CNS) was greater than 100 µM. It also gave a TGI (SF-295 CNS) greater than 100 µM, a TGI (786-0 renal) greater than 100 µM and a TGI (NCI-H226 lung) greater than 100 µM.

For `c1ccc(C2SCC3=Nc4ccccc4CN32)cc1` (stereo unspecified), the TGI (UACC-62 melanoma) was greater than 100 µM, the TGI (U251 CNS) was greater than 100 µM and the TGI (OVCAR-8 ovarian) was 57.3 µM. The TGI (NCI-H460 lung) was greater than 100 µM, the TGI (TK-10 renal) was greater than 100 µM and the TGI (SNB-19 CNS) was 57.8 µM. It also gave a TGI (SF-295 CNS) of 70.8 µM, a TGI (786-0 renal) greater than 100 µM and a TGI (HOP-92 NSCLC) greater than 100 µM.

Molecule `Cc1csc2nc(-c3ccc([N+](=O)[O-])cc3)c(/C=N/N=C(N)N)n12` has a TGI (UACC-62 melanoma) of 3.17 µM, a TGI (U251 CNS) of 3.24 µM and a TGI (OVCAR-8 ovarian) of 2.68 µM. It also gave a TGI (NCI-H460 lung) of 3.43 µM, a TGI (TK-10 renal) of 3.9 µM and a TGI (SNB-19 CNS) of 4.18 µM. It also gave a TGI (SF-295 CNS) of 3.24 µM, a TGI (786-0 renal) of 3.24 µM and a TGI (HOP-92 NSCLC) of 2.22 µM.

`C=C(C=O)c1c2c(nc3ccccc13)C(=O)c1ccccc1C2=O` was tested, and the TGI (UACC-62 melanoma) was 2.59 µM, the TGI (U251 CNS) was greater than 100 µM and the TGI (OVCAR-8 ovarian) was 2.3 µM. The TGI (TK-10 renal) was 2.32 µM, the TGI (SNB-19 CNS) was 2.8 µM and the TGI (SF-295 CNS) was 2.76 µM. The TGI (786-0 renal) was greater than 100 µM, the TGI (NCI-H226 lung) was 1.97 µM and the TGI (HOP-92 NSCLC) was 5.23 µM.

Molecule `Cc1cccc(Nc2cn(COCc3ccccc3)c(=O)[nH]c2=O)c1` has a TGI (UACC-62 melanoma) greater than 100 µM, a TGI (U251 CNS) greater than 100 µM and a TGI (NCI-H460 lung) greater than 100 µM. For the same molecule, the TGI (SNB-19 CNS) was greater than 100 µM, the TGI (SF-295 CNS) was greater than 100 µM and the TGI (786-0 renal) was greater than 100 µM. For the same molecule, the TGI (HOP-92 NSCLC) was greater than 100 µM.

For `CC[C@@]1(O)C(=O)OCc2c1cc1n(c2=O)Cc2c-1nc1ccccc1c2CC[Si](C)(C)C`, the TGI (UACC-62 melanoma) was 0.176 µM, the TGI (U251 CNS) was 0.103 µM and the TGI (OVCAR-8 ovarian) was greater than 100 µM. The TGI (NCI-H460 lung) was less than 0.0335 µM, the TGI (SNB-19 CNS) was greater than 100 µM and the TGI (SF-295 CNS) was 0.0544 µM. The TGI (786-0 renal) was less than 0.0266 µM, the TGI (NCI-H226 lung) was less than 0.0467 µM and the TGI (HOP-92 NSCLC) was greater than 100 µM.

For `O=C(N/N=C1\CCc2ccccc2C1)N/N=C1\CCc2ccccc2C1`, the TGI (U251 CNS) was greater than 10 µM, the TGI (OVCAR-8 ovarian) was greater than 10 µM and the TGI (NCI-H460 lung) was greater than 10 µM. It also gave a TGI (TK-10 renal) greater than 10 µM, a TGI (SNB-19 CNS) greater than 10 µM and a TGI (SF-295 CNS) greater than 10 µM. For the same molecule, the TGI (786-0 renal) was greater than 10 µM and the TGI (NCI-H226 lung) was greater than 10 µM.

Work on `Cc1nc2c(o1)C(=O)c1ccccc1/C2=N/c1ccccn1` yielded a TGI (UACC-62 melanoma) of 34.9 µM, a TGI (U251 CNS) of 30.4 µM and a TGI (OVCAR-8 ovarian) of 31.1 µM. For the same molecule, the TGI (NCI-H460 lung) was 29.8 µM, the TGI (TK-10 renal) was greater than 100 µM and the TGI (SNB-19 CNS) was 28.3 µM. For the same molecule, the TGI (SF-295 CNS) was greater than 100 µM, the TGI (786-0 renal) was 58.7 µM and the TGI (HOP-92 NSCLC) was 36.9 µM.

Molecule `COC(=O)C1=Nc2c(C)nn(-c3ccccc3)c2N=C(c2ccc(C)cc2)C1` has a TGI (UACC-62 melanoma) greater than 10 µM, a TGI (U251 CNS) greater than 10 µM and a TGI (OVCAR-8 ovarian) greater than 10 µM. For the same molecule, the TGI (TK-10 renal) was greater than 10 µM, the TGI (SNB-19 CNS) was greater than 10 µM and the TGI (SF-295 CNS) was greater than 10 µM. It also gave a TGI (786-0 renal) greater than 10 µM and a TGI (HOP-92 NSCLC) greater than 10 µM.

`CC(=O)[O-].CC(=O)[O-].O=C(N/N=C/c1cc(Cl)cc(Cl)c1[OH2+])c1ccncc1.[Co+2]` was tested, and the TGI (UACC-62 melanoma) was greater than 100 µM, the TGI (OVCAR-8 ovarian) was greater than 100 µM and the TGI (NCI-H460 lung) was greater than 100 µM. For the same molecule, the TGI (TK-10 renal) was greater than 100 µM, the TGI (SNB-19 CNS) was greater than 100 µM and the TGI (SF-295 CNS) was greater than 100 µM. For the same molecule, the TGI (786-0 renal) was greater than 100 µM, the TGI (NCI-H226 lung) was greater than 100 µM and the GI50 (HOP-92 NSCLC) was 23.6 µM. The TGI (HOP-92 NSCLC) was 95.9 µM.

For `CCOP(=O)(/C=C\n1cnc2c(=O)n(C(C)=O)c(N)nc21)OCC`, the TGI (UACC-62 melanoma) was greater than 100 µM, the TGI (U251 CNS) was greater than 100 µM and the TGI (OVCAR-8 ovarian) was greater than 100 µM. It also gave a TGI (NCI-H460 lung) greater than 100 µM, a TGI (TK-10 renal) greater than 100 µM and a TGI (SNB-19 CNS) greater than 100 µM. It also gave a TGI (SF-295 CNS) greater than 100 µM, a TGI (786-0 renal) greater than 100 µM and a TGI (NCI-H226 lung) greater than 100 µM.

With `O=C1OCC(C#Cc2ccccc2)=C1Cl` the GI50 (UACC-62 melanoma) was 6.21 µM, the TGI (UACC-62 melanoma) was 18.8 µM and the GI50 (U251 CNS) was 1.59 µM. The TGI (U251 CNS) was 3.13 µM, the GI50 (OVCAR-8 ovarian) was 3.45 µM and the TGI (OVCAR-8 ovarian) was greater than 100 µM. It also gave a GI50 (NCI-H460 lung) of 7.59 µM, a TGI (NCI-H460 lung) greater than 100 µM and a GI50 (TK-10 renal) of 1.61 µM. For the same molecule, the TGI (TK-10 renal) was 6.38 µM, the GI50 (SNB-19 CNS) was 7.49 µM and the TGI (SNB-19 CNS) was 67.9 µM. It also gave a GI50 (SF-295 CNS) of 21.6 µM, a TGI (SF-295 CNS) greater than 100 µM and a GI50 (NCI-H226 lung) of 3.11 µM. The TGI (NCI-H226 lung) was 7.13 µM, the GI50 (HOP-92 NSCLC) was 2.14 µM and the TGI (HOP-92 NSCLC) was 6.84 µM.

`CC1CCCC2=C1C(c1ccc(Cl)cc1)n1c(s/c(=C\c3ccc(Cl)cc3)c1=O)=N2` (stereo unspecified) was tested, and the TGI (UACC-62 melanoma) was greater than 100 µM, the TGI (U251 CNS) was greater than 100 µM and the TGI (OVCAR-8 ovarian) was greater than 100 µM. For the same molecule, the TGI (TK-10 renal) was greater than 100 µM, the TGI (SNB-19 CNS) was greater than 100 µM and the TGI (786-0 renal) was greater than 100 µM. For the same molecule, the TGI (HOP-92 NSCLC) was greater than 100 µM.

In the case of `N#Cc1c(-c2ccccc2)/c(=C\O)c(=O)n2c1nc1ccccc12`, the TGI (UACC-62 melanoma) is reported as greater than 100 µM, the TGI (U251 CNS) is reported as greater than 100 µM and the TGI (OVCAR-8 ovarian) is reported as greater than 100 µM. The TGI (NCI-H460 lung) was greater than 100 µM, the TGI (TK-10 renal) was greater than 100 µM and the TGI (SNB-19 CNS) was greater than 100 µM. The TGI (SF-295 CNS) was greater than 100 µM, the TGI (786-0 renal) was greater than 100 µM and the TGI (NCI-H226 lung) was greater than 100 µM.

Work on `CC(NS(C)(=O)=O)c1ccccc1` (stereo unspecified) yielded a TGI (UACC-62 melanoma) greater than 100 µM, a TGI (U251 CNS) greater than 100 µM and a TGI (OVCAR-8 ovarian) greater than 100 µM. It also gave a TGI (NCI-H460 lung) greater than 100 µM, a TGI (TK-10 renal) greater than 100 µM and a TGI (SNB-19 CNS) greater than 100 µM. It also gave a TGI (SF-295 CNS) greater than 100 µM, a TGI (786-0 renal) greater than 100 µM and a TGI (NCI-H226 lung) greater than 100 µM.
